# Laboratory results published in patent US20100316574A1, “Oncofetal Antigen/Immature Laminin Receptor Peptides for the Sensitization of Dendritic Cells for Cancer Therapy” (Quantum Immunologics, Inc., priority 2009, published 2010).
# Entries after “also recorded” stand apart in the source; their conditions may differ.
# What was measured:
# DU145 cells = experiment: CellTiter-Blue cell viability assay; type: cell-based; conditions: for effect on cell viability: compared to peptide diluent control; for cell viability versus controls: overnight
# Method: All cells were grown in RPMI 1640 with L-glutamine; 100 I.U. Penicillin, 100 μg/ml Streptomycin, and 10% fetal calf serum at 37° C. in a humid chamber (Mediatech, Inc. Manassas, Va.). DU 145 cells were obtained from American Type Culture Collection (ATCC, Manassas, Va.) and grown in media following standard protocols. DU145 cells were grown to between 75 and 85% density and collected following standard protocols and counted using a modified Neubauer brightline hemacytometer and suspended at 400,000 cell/ml.
# (§1) Peptides were dissolved in either phosphate buffered saline (PBS) or DMSO and then PBS to a maximum of 20% DMSO and a 2× solution was made and placed into complete medium. After being diluted to appropriate concentration, 50 μl was dispensed into a 96-well assay plate, either coated with laminin/entactin complex (50 μg/ml) or untreated (Black with clear bottom) (Corning Life Sciences, Corning, N.Y.), 50 μl of cells (20,000 cells/well), and were grown overnight. Cells then had 20 μl of CellTiter-Blue added ((Promega, Madison, Wis.)) and incubated for an additional 2 hours at 37° C. Cells were then read on a DTX-880 (Beckman Inc.) following standard fluorescent protocols with an integration time of 0.001 sec. To determine if caspase activity was induced, Caspase 3/7 activity was determined using ApoOne assay (Promega, Madison, Wis.). The data was exported to Excel and then to Prism 5.0 (GraphPad Software, Inc) where it was plotted, and analyzed for statistical differences between the background control (diluents used for the peptide) using a one-way ANOVA.
# Caspase 3/7 = experiment: ApoOne Caspase 3/7 assay; type: cell-based; conditions: DU145; data not shown
# Method: as §1
# [1] = system: dendritic cells pulsed with recombinant human OFA/iLRP; experiment: FACS binding of fluorescein-labeled 129 and 129-a peptides to dendritic cells pulsed with rHu OFA; type: cell-based; conditions: FITC-labeled peptide on dendritic cells pulsed with rHu OFA 100 ng/ml
# Method: CD 14+ monocytes were grown in serum-free dendritic cell medium containing: 1000 IU/ml GM-CSF and 1000 IU/ml of IL-4 (Cell Genix Antioch, IL) at 1×10^6 cells per ml. The cells were pulsed with rHu OFA at 100 ng/ml for 36 hours. The pulsed dendritic cells were matured using serum-free dendritic cell medium containing: 10 ng/ml IL-1beta, 1000 IU/ml IL-6, and 5 ng/ml TNF-alpha with 1 μm prostaglandin E2 and matured for 2 days. At the end of two days, the cells were scraped from the plate and analyzed using flow cytometry analysis.
# Briefly, the peptide that was labeled on a cysteine included allowing for conjugation using Fluorsceine-5-maledimide (Pierce/Thermo, Rockford, Ill.) following standard protocols. The unbound fluorsceine was removed using a standard dye-removal column (Pierce/Thermo, Rockford, Ill.). This cysteine can also be used to conjugate the peptides to a range of different products.
# To determine if the maturation was successful, the cells were analyzed with CD14, CD83, CD80/86, and Class II MHC (HLA-DR) following standard protocols (R&D systems; Minneapolis, Minn.). Briefly, 0.5×10^5 cells per tube were suspended in 25 μl or phosphate buffered saline with 2% fetal calf serum. […] The cells were resuspended in 400 μl of PBS with 2% FCS and analyzed. If the cells could not be analyzed immediately, then they were fixed in 0.5% formaldehyde/PBS at 4° C. in the dark. […]
# T-cells = conditions: previously described epitope; cited from earlier work
substance,measurement,setting,value
"GRFTPGTFTNQIQAAFREP [peptide 2, start site 101]",effect on cell viability,DU145 cells,significant effect
same,effect on cell viability,DU145 cells; listed as Peptide 2,significantly different than the control
same,decrease of cell viability,"DU145 cells; versus control, p<0.05",over 2 fold
same,Caspase 3/7 activity / induction of apoptosis,Caspase 3/7,no significant change
TWEKLLLAARAIVAIENPAD [peptide 1],cell viability versus controls,DU145 cells; laminin/entactin coated plate (laminin),no statistical difference
same,cell viability versus controls,DU145 cells; uncoated plate (w/o laminin),no statistical difference
"Ac-CADHQPLTEASYVNLPT-amide (Ac-CADHQPLTEASYVNLPT-NH2) [129 peptide, start site 129]",mean fluoresence intesity (MFI),[1],"11,390+/−500.6"
"amino acids 49-60: peptide made against the previously described OFA/iLRP epitope (amino acids 49-60), Rohrer 2006 (INLKRTWEKLLL; UniProt P08865 49-60, looked up, fragment) [reference compound]",effect on cell viability,DU145 cells,unable to affect cell viability; also recorded: did not affect cell viability
same,Caspase 3/7 activity / induction of apoptosis,Caspase 3/7,unable to affect cell viability or induce apoptosis
same,T-cell proliferation,T-cells,able to proliferate T-cells
